# Measured values: ChEMBL document CHEMBL3244165, “Improved synthesis and in vitro antiviral activities of 5-cyanouridine and 5-cyano-2'-deoxyuridine” (J Med Chem, 1977)
# Tested on: Vaccinia virus
# Test: Antiviral activity against Vaccinia virus infected in primary rabbit kidney cells assessed as inhibition of virus-induced cytopathogenicity
# Assay type: functional, Orthopoxvirus vaccinia
row,Compound,ID50
1,N#Cc1cn([C@@H]2O[C@H](CO)[C@@H](O)[C@H]2O)c(=O)[nH]c1=O,>3.7 ×10⁻⁴ M
2,Nc1ncnc2c1ncn2[C@@H]1O[C@H](CO)[C@@H](O)[C@@H]1O [VIDARABINE],1.4 ×10⁻⁶ M
3,O=c1[nH]c(=O)n([C@H]2C[C@H](O)[C@@H](CO)O2)cc1C(F)(F)F [TRIFLURIDINE],3.3 ×10⁻⁷ M
4,O=c1[nH]c(=O)n([C@H]2C[C@H](O)[C@@H](CO)O2)cc1F [FLOXURIDINE],4 ×10⁻⁷ M
5,O=c1[nH]c(=O)n([C@H]2C[C@H](O)[C@@H](CO)O2)cc1I [IDOXURIDINE],1.1 ×10⁻⁶ M
6,O=c1[nH]c(=O)n([C@H]2C[C@H](O)[C@@H](CO)O2)cc1Br [BROXURIDINE],3.2 ×10⁻⁷ M
7,N#Cc1cn([C@H]2C[C@H](O)[C@@H](CO)O2)c(=O)[nH]c1=O,1.6 ×10⁻⁵ M
8,O=c1[nH]c(=O)n([C@H]2C[C@H](O)[C@@H](CO)O2)cc1Cl [CHLORODEOXYURIDINE],7.6 ×10⁻⁷ M
